Experimental data as given in ChEMBL document CHEMBL3862027, “Synthesis and antimalarial activity of N-benzylated (N-arylcarbamoyl)alkylphosphonic acid derivatives” (Bioorg Med Chem, 2016).

What was measured:
[1] = test system: Plasmodium falciparum; assay: Antimalarial activity against Plasmodium falciparum 3D7 infected in human erythrocytes assessed as cell viability at 20 uM after 48 hrs by lactate dehydrogenase assay; format: functional
[2] = Cytotoxicity against human HeLa cells assessed as cell viability at 20 uM after 24 hrs by resazurin based fluorescence assay relative to control; format: toxicity; settings: read-out: Activity
[3] = test system: Plasmodium falciparum; assay: Antimalarial activity against Plasmodium falciparum 3D7 infected in human erythrocytes after 48 hrs by lactate dehydrogenase assay; format: functional, cell-based; settings: 3D7, 48 h
[4] = test system: Plasmodium falciparum; assay: Inhibition of Plasmodium falciparum DXR at 20 uM using DOXP as substrate preincubated for 5 mins followed by substrate addition measured for 10 mins in presence of NADPH by spectrophotometric analysis

Row | SMILES | Activity [1] [%] | viability at 24 h, 20 µM [2] [%] | IC50 [3] [µM] | inhibition [4] [%]
1 | CCOP(=O)(CCC(=O)N(Cc1ccccc1)c1ccccn1)OCC | -5.33 | 113 | 22.3 | 
2 | CCOP(=O)(CC(=O)Nc1cccc(CO)c1)OCC | -7.26 | 123 | 10.1 | 
3 | O=C(CCP(=O)(O)O)N(Cc1ccccc1)c1cccc(O)c1 |  |  |  | 0
4 | CCOP(=O)(CC(=O)Nc1cccc(Br)c1)OCC | 50.91 | 102 |  | 
5 | CCOP(=O)(CCC(=O)N(Cc1ccccc1)c1cccc(OCc2ccccc2)c1)OCC | 6.84 | 108 | 16.4 | 
6 | CCOP(=O)(CCC(=O)N(Cc1ccccc1)c1cccc(O)c1)OCC | -8.05 | 120 | 15.8 to 15.9 | 
7 | CCOP(=O)(CCC(=O)Nc1cccc(O)c1)OCC | 54.54 | 119 |  | 
8 | CCOP(=O)(CC(=O)Nc1cccc([N+](=O)[O-])c1)OCC | 64.13 | 83.1 |  | 
9 | CCOP(=O)(CC(=O)Nc1cccc(O)c1)OCC | 52.42 | 117 |  | 
10 | CCOP(=O)(CCC(=O)N(Cc1ccccc1)c1cccc(Br)c1)OCC | 35.19 | 121 |  | 
11 | CC(=O)N(O)CCCP(=O)(O)O |  |  |  | 73.3
12 | CCOP(=O)(CCC(=O)N(Cc1ccccc1)c1cccc(CO)c1)OCC | 55.44 | 110 |  | 
13 | C#CCNC(=O)CCP(=O)(OCC)OCC | -4.04 | 92 | 20.1 | 
14 | C#CCNC(=O)CP(=O)(OCC)OCC | 47.96 | 104 |  | 
15 | CCOP(=O)(CCC(=O)N(Cc1ccccc1)c1cccc([N+](=O)[O-])c1)OCC | 59.6 | 118 |  | 
16 | C#CCNC(=O)CCP(=O)(O)O |  |  |  | 6.7
17 | O=C(CCP(=O)(O)O)N(Cc1ccccc1)c1ccccn1 |  |  |  | 0
18 | CCOP(=O)(CC(=O)Nc1cccc(O[Si](C)(C)C(C)(C)C)c1)OCC | 61.87 | 85.7 |  | 
19 | CCOP(=O)(CCC(=O)Nc1cccc(OCc2ccccc2)c1)OCC | 51.13 | 105 |  | 
20 | CCOP(=O)(CC(=O)Nc1ccccn1)OCC | -19.39 | 131 | 23.1 | 
